Data on two molecules can be found in the NIST ThermoML archive (doi:10.1016/j.jct.2008.12.015).

Numbers after ± are expanded uncertainties.

Data set [1] in a line: molar enthalpy of vaporization or sublimation. The settings on record: Static calorimetry.
For data set [2] the following is noted: Crystal; for mass density: 298.15 K, 101.33 kPa; for Normal melting temperature: DTA.

For `CC(C)(C)c1ccc(-c2ccccc2)cc1` [4-(1,1-dimethylethyl)-1,1'-biphenyl], the molar enthalpy in data set [1] (322.65 K, Crystal) stood at 23.3 ± 0.382 kcal/mol; in data set [1] (334 K, Liquid), 18.4 ± 0.206 kcal/mol. For the same molecule, the mass density (as a rule, the mass of a sample divided by its volume) in data set [2] was 1030 kg/m3. In addition, in data set [2], the Normal melting temperature was found to be 51.6 ± 0.4 °C.

With `CC(C)(C)c1ccc(-c2ccc(C(C)(C)C)cc2)cc1` [4,4'-bis(1,1-dimethylethyl)-1,1'-biphenyl], the molar enthalpy in data set [1] (399.15 K, Crystal) was 23.8 ± 0.406 kcal/mol. In data set [2], the mass density is recorded as 950 kg/m3 and the Normal melting temperature is 127.7 ± 0.4 °C.
